Data: paper PMC7401407, “Development of WEE2 kinase inhibitors as novel non-hormonal female contraceptives that target meiosis” (Biology of Reproduction, 2020)
“Also recorded” adds a separate entry of the source.

Assays:
MYT1 (PKMYT1) = test system: MYT1 (PKMYT1); parameters: method as in PMID 28792760; conditions: direct binding studies; cited from earlier work
recombinant WEE2 protein = test system: T1, recombinant WEE2 protein; experiment: ELISA of CDK1 phosphorylation (CycLex kit), WEE2; format: biochemical, human; conditions: 1 μM inhibitor, 60 min at 30 °C
T1 construct: made in house

bovine oocytes = experiment: Bovine in vitro fertilization (exit from metaphase II arrest); format: cell-based
human WEE1 protein = test system: T2, human WEE1 protein; experiment: ELISA of CDK1 phosphorylation (CycLex WEE1 Kinase Assay/Inhibitor Screening Kit), WEE1; format: biochemical; conditions: 1 μM inhibitor, 60 min at 30 °C
T2 construct: purchased MBL International CYE1172

HEK 293 cells = experiment: Somatic cell proliferation assay (dye dilution, flow cytometry); format: cell-based
From the text: To determine off-target effects of inhibitors on somatic cell WEE1, a proliferation assay was used as previously reported [22]. […] Independent cell cultures were collected at 0-, 48-, 72-, and 96-h post loading with a membrane permeable fluorophore, cell trace violet dye (Cat# C34557; ThermoFisher, Waltham, MA), which diminishes in concentration within the cell after each progressive division. Duplicate samples were collected and fixed for analysis by flow cytometry.
To evaluate the biological off-target effect of candidate inhibitors on mitosis, we use somatic cell culture and flow cytometry to assess proliferation disruption. […] Prior to each culture experiment, we treat the cells with a membrane permeable fluorescent dye to track cellular division activity. As cells divide the dye becomes diluted and the fluorescent signal decreases. We use flow cytometry, with at least 20 000 events counted to measure fluorescence intensity to indicate changes in cell proliferation in the presence of inhibitors [38]. The more inhibitory a drug, the more dye will be retained in the cells and so comparison can be made to controls to determine the level of mitotic activity.

In the case of `C=CCn1c(=O)c2cnc(Nc3ccc(N4CCN(C)CC4)cc3)nc2n1-c1cccc(C(C)(C)O)n1` [MK-1775, Adavosertib], the “activity against MYT1 relative to WEE1 and WEE2” value (MYT1 (PKMYT1)) is listed as “significantly weaker activity”, the “WEE2 phosphorylation activity of CDK1” value (recombinant WEE2 protein) is listed as “significantly reduces; also recorded: significantly inhibits” and the “proportion of oocytes undergoing normal fertilization” value (bovine oocytes; 1 μM prior to and during IVF) is listed as “reduction in the proportion of oocytes undergoing normal fertilization”. The “reduction of MII exit compared to DMSO” value (bovine oocytes; bovine oocytes co-cultured with inhibitor during IVF, N = 126) was 16%, the “WEE1 phosphorylation activity of CDK1” value (human WEE1 protein) was “significantly reduces; also recorded: significantly inhibits” and the “somatic cell division activity (mitosis)” value (HEK 293 cells; HEK 293, 0.01 μM) was “decrease in mitosis”. For the same compound, the “somatic cell division activity (mitosis)” value (HEK 293 cells; HEK 293, 0.1 μM) was “decrease in mitosis” and the “somatic cell division activity (mitosis)” value (HEK 293 cells; HEK 293, 1 μM) was “inhibited mitosis in somatic cell culture after 48 h; also recorded: arrested the cell culture”.
